Experimental data published in patent publication US6809077B2, “Cyclosporin analogs for the treatment of autoimmune diseases” (Enanta Pharmaceuticals, Inc., priority 2001, dated 2004).

Assays:
[1] = system: NFAT proteins (pNFAT-Luc luciferase) in Jurkat cells; experiment: NFAT reporter gene assay, pNFAT-Luc plasmid in Jurkat cells; assay type: cell-based, human; conditions: Jurkat cells transfected with pNFAT-Luc, treated with 60 ng/ml of PMA and 1 μg/ml of inomycin in combination
From the text: (§1) NFAT activation follows precisely the activation of calcineurin by increased free calcium levels in the cytoplasm. Researchers from diverse fields are interested in the NFAT family of transcription factors, which are potential targets for newer and safer immunosuppressive drugs. In addition, the activation of NFAT proteins involves various cellular signal transduction pathways, including calcium mobilization and mitogen-activated protein kinase (MAP kinase) pathways linked to T-cell receptors and Ras1. To assist researchers probing the activity of NFAT proteins, Stratagene has developed a PathDetect cis-reporter plasmid, the pNFAT-Luc reporter plasmid (Stratagene, Inc. catalog #219094), containing the NFAT binding site from the human IL-2 gene.2,7-9. The NEAT cis-reporting system includes the transfection-ready pNFAT-Luc reporter plasmid and the pCIS-CK negative control plasmid.
(§2) The backbone of the 5749-base-pair pNFAT-Luc plasmid is the pFR-Luc reporter plasmid of the aforementioned PathDetect trans-reporting system. […]
(§3) Cyclosporin inhibits the activity of calcineurin, a protein phosphatase regulated by intracellular calcium mobilization. […] The inhibition of luciferase expression from pNFAT-Luc in the present model, in both Jurkat and CHO cells induced by PMA and ionomycin, was monitored for cyclosporin (as a positive control) and the cyclosporin analogs of the present invention.

[2] = system: NFAT proteins (pNFAT-Luc luciferase) in Chinese hamster ovary cells (CHO cells); experiment: NFAT reporter gene assay, pNFAT-Luc plasmid in CHO cells; assay type: cell-based; conditions: CHO cells transfected with pNFAT-Luc, treated with 60 ng/ml of PMA and 1 μg/ml of inomycin in combination
From the text: as §1, §2, §3

[3] = system: NFAT proteins (pNFAT-Luc luciferase) in cells transfected with pNFAT-Luc; experiment: NFAT reporter gene assay, cells transfected with pNFAT-Luc, single stimulus; assay type: cell-based; conditions: treated with either PMA or onomycin alone
From the text: as §1
The backbone of the 5749-base-pair pNFAT-Luc plasmid is the pFR-Luc reporter plasmid of the aforementioned PathDetect trans-reporting system. To this backbone, the GAL4 binding element was replaced with four direct repeats of the NFAT binding sequence (−286 to −257) from the IL-2 gene promoter, the most studied and widely used NFAT binding sequence. […]

Compound | luciferase activity increased [1] | luciferase activity increased [2] | increase in luciferase activity [3]
CCCCCCCCCCCCCC(=O)O[C@@H]1[C@@H](C)[C@@]2(O)[C@@H](C=C(CO)C[C@]3(O)C(=O)C(C)=C[C@@H]23)[C@@H]2C(C)(C)[C@]12OC(C)=O [PMA] | 13 fold | 16 fold | did not show a significant increase
C[C@H](CCC(=O)O)C[C@H](C)C[C@H](C)C(=O)/C=C(\O)[C@H](C)C[C@H](C)C/C=C/[C@@H](C)[C@@H](O)[C@@H](C)[C@@H](O)C[C@@H]1CC[C@@](C)([C@H]2CC[C@@](C)([C@@H](C)O)O2)O1 [onomycin] |  |  | did not show a significant increase
